# Data published in patent publication US4069382A, “9-(5-O-Acyl-β-D-arabinofuranosyl)adenine compounds” (Parke, Davis & Company, priority 1976, dated 1978).
# Test: water solubility
# Format: physicochemical
# Conditions: ph 7 buffer, pH 7
row,Compound,water solubility
1,"CCCC(=O)OC[C@H]1O[C@@H](n2cnc3c(N)ncnc32)[C@@H](O)[C@@H]1O [Example 3, 9-(5-O-butyryl-β-D-arabinofuranosyl)adenine]",16100 µg/mL

# Same assay, conditions: ph 7 buffer, pH 7, aqueous buffer
row,Compound,solubility
1,"CC(=O)OC[C@H]1O[C@@H](n2cnc3c(N)ncnc32)[C@@H](O)[C@@H]1O [Example 1, 9-(5-O-acetyl-β-D-arabinofuranosyl)adenine]",9900 µg/mL
2,"CCC(=O)OC[C@H]1O[C@@H](n2cnc3c(N)ncnc32)[C@@H](O)[C@@H]1O [Example 2, 9-(5-O-propionyl-β-D-arabinofuranosyl)adenine]",9200 µg/mL
3,CCCCC(=O)OC[C@H]1O[C@@H](n2cnc3c(N)ncnc32)[C@@H](O)[C@@H]1O [Example 4],8400 µg/mL
4,"CC(C)CC(=O)OC[C@H]1O[C@@H](n2cnc3c(N)ncnc32)[C@@H](O)[C@@H]1O [Example 5, 9-[5-O-(3-methylbutyryl)-β-D-arabinofuranosyl]-adenine]",16400 µg/mL
5,"CC(C)(C)C(=O)OC[C@H]1O[C@@H](n2cnc3c(N)ncnc32)[C@@H](O)[C@@H]1O [Example 6, 9-[5-O-(2,2-dimethylpropionyl)-β-D-arabinofuranosyl]-adenine]",7000 µg/mL
6,"CCCCCC(=O)OC[C@H]1O[C@@H](n2cnc3c(N)ncnc32)[C@@H](O)[C@@H]1O [Example 7, 9-(5-O-hexanoyl-β-D-arabinofuranosyl)adenine]",2500 µg/mL
